This is an account of results in ChEMBL document CHEMBL1909046, “DrugMatrix in vitro pharmacology data”.

Assay [1] concerns the target Beta-3 adrenergic receptor (Homo sapiens, UniProt P13945). The assay is described as follows: DRUGMATRIX: Adrenergic beta3 radioligand binding (ligand: [125I] Cyanopindolol). The assay is classed as cell membranes, HEK293, Membrane. As to conditions: hek293; Not Active = under 50% inhibition at 10 µM.
Assay [2] is described as follows: DRUGMATRIX: Calcium Channel Type L, Benzothiazepine radioligand binding (ligand: [3H] Diltiazem). The assay is classed as cell membranes, Rattus norvegicus, Wistar, Brain, Membrane. As to conditions: Not Active = under 50% inhibition at 10 µM.
Assay [3] concerns the target C-C chemokine receptor type 2 (Homo sapiens, UniProt P41597). It counts as cell membranes, CHO-K1, Membrane. Note: in other assays of this panel Not Active means under 50% inhibition at 10 µM.
The target in assay [4] is T1, C-X-C chemokine receptor type 1 (Homo sapiens, UniProt P25024). Note: in other assays of this panel Not Active means under 50% inhibition at 10 µM.
T1 sequence (P25024 whole entry): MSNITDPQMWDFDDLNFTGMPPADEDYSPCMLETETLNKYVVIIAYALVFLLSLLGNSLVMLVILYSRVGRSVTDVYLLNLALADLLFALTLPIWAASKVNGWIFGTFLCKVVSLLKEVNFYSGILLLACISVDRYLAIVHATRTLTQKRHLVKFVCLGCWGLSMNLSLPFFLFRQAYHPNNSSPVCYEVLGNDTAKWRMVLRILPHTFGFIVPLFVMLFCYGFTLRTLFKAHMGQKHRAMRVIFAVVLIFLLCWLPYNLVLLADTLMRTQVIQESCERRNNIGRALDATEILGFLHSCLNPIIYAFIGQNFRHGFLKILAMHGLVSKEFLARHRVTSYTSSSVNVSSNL

Assay [5] concerns the target Prostaglandin G/H synthase 1 (Homo sapiens, UniProt P23219). The assay is described as follows: biochemical. The assay is classed as tissue-based, Platelet. Particulars: platelet.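 Note: inhibition of COX-1 enzyme activity, with arachidonic acid supplied as substrate; in other assays of this panel Not Active means under 50% inhibition at 10 µM.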
A short description of assay [6]: DRUGMATRIX: Glutamate, NMDA, Phencyclidine radioligand binding (ligand: [3H] TCP). The assay is classed as cell membranes, Rattus norvegicus, Wistar, Cerebral cortex, Membrane. Particulars: Not Active = under 50% inhibition at 10 µM.
Assay [7] deals with T2, Muscarinic acetylcholine receptor M5 (Homo sapiens, UniProt P08912).
T2 sequence (P08912 whole entry): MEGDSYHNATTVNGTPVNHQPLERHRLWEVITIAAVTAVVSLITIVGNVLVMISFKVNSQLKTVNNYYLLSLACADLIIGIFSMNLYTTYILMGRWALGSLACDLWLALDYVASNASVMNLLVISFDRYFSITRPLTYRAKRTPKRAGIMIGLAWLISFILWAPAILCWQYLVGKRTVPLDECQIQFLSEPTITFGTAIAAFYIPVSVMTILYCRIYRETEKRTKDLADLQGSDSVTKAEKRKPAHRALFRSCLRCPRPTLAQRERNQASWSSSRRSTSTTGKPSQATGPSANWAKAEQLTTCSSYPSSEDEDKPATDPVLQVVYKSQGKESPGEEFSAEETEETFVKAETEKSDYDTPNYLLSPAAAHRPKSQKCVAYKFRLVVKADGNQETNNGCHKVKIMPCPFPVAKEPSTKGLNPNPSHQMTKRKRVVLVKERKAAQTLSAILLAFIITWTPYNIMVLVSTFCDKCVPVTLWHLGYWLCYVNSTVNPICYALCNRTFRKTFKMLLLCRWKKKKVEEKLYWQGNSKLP
It counts as cell membranes, CHO-K1, Membrane. As to conditions: cho-k1.

Assay [8] is described as follows: DRUGMATRIX: Platelet-Derived Growth Factor (PDGF) radioligand binding (ligand: [125I] PDGF). It counts as cell-based. As to conditions: nih3t3; Not Active = under 50% inhibition at 10 µM.
Assay [9] deals with T3, Angiotensin-converting enzyme (Oryctolagus cuniculus, UniProt P12822).
T3 sequence (P12822 whole entry): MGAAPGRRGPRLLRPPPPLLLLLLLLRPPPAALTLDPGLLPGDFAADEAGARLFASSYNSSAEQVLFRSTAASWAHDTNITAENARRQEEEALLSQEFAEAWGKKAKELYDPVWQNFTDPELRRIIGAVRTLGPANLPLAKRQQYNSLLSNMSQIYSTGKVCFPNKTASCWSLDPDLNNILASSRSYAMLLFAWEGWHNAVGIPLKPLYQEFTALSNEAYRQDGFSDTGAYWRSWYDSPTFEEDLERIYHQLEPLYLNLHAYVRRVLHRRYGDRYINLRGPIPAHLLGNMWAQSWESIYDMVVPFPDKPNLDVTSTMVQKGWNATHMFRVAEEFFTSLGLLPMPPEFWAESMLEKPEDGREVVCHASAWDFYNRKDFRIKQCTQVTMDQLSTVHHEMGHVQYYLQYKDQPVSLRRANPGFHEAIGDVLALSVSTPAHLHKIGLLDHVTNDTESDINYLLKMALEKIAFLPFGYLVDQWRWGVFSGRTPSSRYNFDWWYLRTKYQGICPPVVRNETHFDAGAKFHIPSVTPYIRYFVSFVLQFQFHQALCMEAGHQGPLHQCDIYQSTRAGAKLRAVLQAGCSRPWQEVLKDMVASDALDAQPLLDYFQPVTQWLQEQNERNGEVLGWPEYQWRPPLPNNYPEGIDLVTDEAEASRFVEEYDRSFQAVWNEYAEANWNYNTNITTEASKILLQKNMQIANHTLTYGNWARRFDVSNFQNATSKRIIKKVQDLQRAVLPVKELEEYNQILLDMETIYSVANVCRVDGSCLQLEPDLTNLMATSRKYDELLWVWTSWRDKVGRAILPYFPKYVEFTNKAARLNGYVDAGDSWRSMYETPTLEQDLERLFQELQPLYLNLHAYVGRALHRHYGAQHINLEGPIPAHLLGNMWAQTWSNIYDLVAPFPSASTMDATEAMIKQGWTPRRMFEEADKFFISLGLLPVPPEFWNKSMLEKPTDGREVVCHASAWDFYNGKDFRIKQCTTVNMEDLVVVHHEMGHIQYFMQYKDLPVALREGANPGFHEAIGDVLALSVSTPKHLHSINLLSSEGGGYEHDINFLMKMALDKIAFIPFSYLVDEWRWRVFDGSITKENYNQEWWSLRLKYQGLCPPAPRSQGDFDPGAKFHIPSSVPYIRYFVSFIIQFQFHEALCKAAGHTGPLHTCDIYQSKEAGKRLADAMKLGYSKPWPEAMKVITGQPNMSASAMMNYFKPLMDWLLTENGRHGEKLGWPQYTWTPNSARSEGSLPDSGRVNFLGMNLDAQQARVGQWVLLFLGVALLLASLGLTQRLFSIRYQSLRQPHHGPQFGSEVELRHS
The assay is described as follows: biochemical. The assay is classed as tissue-based, Lung.

The next assay has as its target T4, Cathepsin G (Homo sapiens, UniProt P08311).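 Note: inhibition of Cathepsin G enzyme activity, tested on an AMC-conjugated peptide substrate; in other assays of this panel Not Active means under 50% inhibition at 10 µM.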
T4 sequence (P08311 whole entry): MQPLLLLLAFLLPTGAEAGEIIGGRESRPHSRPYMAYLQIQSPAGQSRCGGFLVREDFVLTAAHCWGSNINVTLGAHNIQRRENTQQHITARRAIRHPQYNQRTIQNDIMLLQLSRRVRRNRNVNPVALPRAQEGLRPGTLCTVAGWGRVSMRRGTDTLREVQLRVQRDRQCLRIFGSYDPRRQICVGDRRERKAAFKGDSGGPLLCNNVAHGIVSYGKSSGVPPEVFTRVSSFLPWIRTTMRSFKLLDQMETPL
It counts as tissue-based. Particulars: neutrophil.

C-C chemokine receptor type 2, sequence (P41597 whole entry): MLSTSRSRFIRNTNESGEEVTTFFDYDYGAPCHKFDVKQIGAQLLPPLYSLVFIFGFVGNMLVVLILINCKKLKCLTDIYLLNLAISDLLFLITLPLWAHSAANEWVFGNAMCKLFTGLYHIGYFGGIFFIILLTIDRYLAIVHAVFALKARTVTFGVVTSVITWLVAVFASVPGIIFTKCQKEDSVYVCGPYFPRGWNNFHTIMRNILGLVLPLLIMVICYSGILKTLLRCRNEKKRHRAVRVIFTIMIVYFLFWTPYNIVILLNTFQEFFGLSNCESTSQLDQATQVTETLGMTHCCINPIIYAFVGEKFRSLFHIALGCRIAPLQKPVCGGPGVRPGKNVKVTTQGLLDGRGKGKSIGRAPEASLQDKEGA
Beta-3 adrenergic receptor, sequence (P13945 whole entry): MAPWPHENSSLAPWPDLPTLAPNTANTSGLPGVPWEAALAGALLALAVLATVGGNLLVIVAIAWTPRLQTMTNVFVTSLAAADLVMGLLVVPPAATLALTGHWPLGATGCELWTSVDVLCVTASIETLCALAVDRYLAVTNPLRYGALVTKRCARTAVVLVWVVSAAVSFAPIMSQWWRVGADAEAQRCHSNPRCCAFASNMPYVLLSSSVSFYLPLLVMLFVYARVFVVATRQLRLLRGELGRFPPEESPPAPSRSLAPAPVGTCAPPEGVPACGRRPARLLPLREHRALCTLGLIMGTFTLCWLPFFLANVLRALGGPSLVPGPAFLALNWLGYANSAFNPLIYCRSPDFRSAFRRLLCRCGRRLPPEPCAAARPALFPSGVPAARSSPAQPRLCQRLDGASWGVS
Prostaglandin G/H synthase 1, sequence (P23219 whole entry): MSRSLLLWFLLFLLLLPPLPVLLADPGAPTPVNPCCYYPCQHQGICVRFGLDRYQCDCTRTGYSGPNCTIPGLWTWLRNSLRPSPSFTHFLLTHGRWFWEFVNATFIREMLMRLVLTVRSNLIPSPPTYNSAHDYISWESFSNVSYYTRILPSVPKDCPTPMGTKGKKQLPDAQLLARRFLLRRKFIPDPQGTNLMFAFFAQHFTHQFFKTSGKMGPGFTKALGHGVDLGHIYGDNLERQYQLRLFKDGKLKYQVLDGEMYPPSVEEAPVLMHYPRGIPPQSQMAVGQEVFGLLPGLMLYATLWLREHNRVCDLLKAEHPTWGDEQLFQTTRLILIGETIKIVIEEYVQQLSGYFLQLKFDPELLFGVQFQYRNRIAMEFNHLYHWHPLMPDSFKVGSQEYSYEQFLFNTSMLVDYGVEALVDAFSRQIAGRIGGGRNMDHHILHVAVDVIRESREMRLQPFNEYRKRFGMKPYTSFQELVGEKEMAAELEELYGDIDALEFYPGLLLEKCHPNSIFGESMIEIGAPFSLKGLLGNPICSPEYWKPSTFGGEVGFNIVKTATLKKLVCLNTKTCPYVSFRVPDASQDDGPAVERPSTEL

Regarding `O=C1c2c(O)ccc(O)c2C(=O)c2c(NCCNCCO)ccc(NCCNCCO)c21` [MITOXANTRONE], the half-inhibitory concentration (IC50) entry in assay [1], in assay [2], in [3] (cho-k1), in [4], in assay [5] and in assay [6] was “Not Active” in each case. Further, the IC50 result (in [7]; in assay [8]; in assay [9]; against Cathepsin G) was “Not Active” in each case. Moreover, the Ki result in assay [2], in assay [6] and in [8] was “Not Active” each time.
For `COc1c(C)c2c(c(O)c1C/C=C(\C)CCC(=O)OCCN1CCOCC1)C(=O)OC2` [MYCOPHENOLATE MOFETIL], the 50% inhibitory concentration (IC50) result in assay [1], in assay [2], in assay [3] (cho-k1), in assay [4], in assay [5] and in [6] was “Not Active” each time. Moreover, the IC50 result (in assay [7]; in assay [8]; in assay [9]; at Cathepsin G) was “Not Active” in each case. Moreover, the Ki result in assay [2], in assay [6] and in assay [8] was “Not Active” in each case.
Turning to `COC(=O)C1=C(C)NC(C)=C(C(=O)OC)C1c1ccccc1[N+](=O)[O-]` [NIFEDIPINE], the IC50 result is “Not Active” in assay [1]; 8.67 nM in assay [2] (read-out: IC50); 2190 nM in assay [3] (read-out: IC50); “Not Active” in assay [4]; “Not Active” in [5]; “Not Active” in assay [6]. Besides, the IC50 result (in assay [7]; in assay [8]; in [9]; on Cathepsin G) was “Not Active” throughout. Moreover, the Ki in [2] (read-out: Ki) was 7.71 nM; in [3] (read-out: Ki), 847 nM; in assay [6] it was “Not Active”; in [8] it was “Not Active”.
`NNc1ccccc1` [PHENYLHYDRAZINE]: the half-inhibitory concentration (IC50) entry in assay [1], in assay [2], in [3] (cho-k1), in assay [4], in [5] and in assay [6] was “Not Active” throughout. In addition, the IC50 result (in assay [7]; in assay [8]; in assay [9]; on Cathepsin G) was “Not Active” in each case. In addition, the Ki result in assay [2], in assay [6] and in assay [8] was “Not Active” in each case.
Turning to `CC(=O)[C@H]1CC[C@H]2[C@@H]3CCC4=CC(=O)CC[C@]4(C)[C@H]3CC[C@]12C` [PROGESTERONE], the IC50 result in assay [1], in assay [2], in [3] (cho-k1), in [4], in assay [5] and in assay [6] was “Not Active” in each case. Also, the IC50 entry (in [7]; in assay [8]; in [9]; against Cathepsin G) was “Not Active” in each case. The Ki entry in [2], in [6] and in assay [8] was “Not Active” throughout.
Turning to `NC(=O)c1ncn([C@@H]2O[C@H](CO)[C@@H](O)[C@H]2O)n1` [RIBAVIRIN], the IC50 entry in assay [1], in [2], in assay [3] (cho-k1), in [4], in [5] and in assay [6] was “Not Active” in each case. Also, the IC50 entry (in assay [7]; in [8]; in assay [9]; against Cathepsin G) was “Not Active” throughout. The inhibition constant Ki result in assay [2], in assay [6] and in assay [8] was “Not Active” in each case.
For the compound `O=[N+]([O-])c1cc([As](=O)(O)O)ccc1O` [ROXARSONE], the half-maximal inhibitory concentration (IC50) result in assay [1], in [2], in assay [3] (cho-k1), in assay [4], in assay [5] and in assay [6] was “Not Active” throughout. Moreover, the IC50 entry (in [7]; in assay [8]; in assay [9]; against Cathepsin G) was “Not Active” each time. Also, the Ki result in [1], in assay [2], in assay [3] (cho-k1), in assay [4], in [5] and in assay [6] was “Not Active” throughout. Besides, the Ki result (in [7]; in assay [8]; in assay [9]; on Cathepsin G) was “Not Active” throughout.

One may read the IC50 as the point on the concentration scale where inhibition reaches its midpoint. As a reminder, the Ki is the equilibrium dissociation constant of an inhibitor or competing ligand from its target.
